# Laboratory results as given in patent US10023591B2, “Heterocyclic derivatives and use thereof” (C&C RESEARCH LABORATORIES, priority 2014, dated 2018).
# Key:
# [1] = tested on: LNCaP prostate cancer cell line; assay: Cell growth inhibition assay, LNCaP (CellTiter-Glo); type: cell-based; settings: Homo sapiens; LNCaP, 10,000 cells/well, medium with 10 ng/mL IL-6, 96 hours
# Method: (§1) The inhibitory effects of the compounds of the present invention against the growth of cancer cells were evaluated as shown below. The cancer cell lines including prostate cancer cell lines (LNCaP, DU-145), stomach cancer cell line (NCI-N87), and breast cancer cell lines (MDA-MB-468) were cultured under the protocol provided by each supplier. A medium supplemented with 10 ng/mL of IL-6 was used for LNCaP, a prostate cancer cell line, when treated with a drug. Each type of cells to be used in experiments was sub-cultured in a 96-well plate by counting the exact number of cells using Tali™ Image-based Cytometer (Life Technologies). In a 96-well plate, DU-145 was employed with 3,000 cells/well; NCI-N87 was employed with 5,000 cells/well; and LNCaP and MDA-MB-468 were employed with 10,000 cells/well. The cells were treated with the compounds listed in Examples which were diluted in various concentrations. Upon completion of the compounds treatment, LNCaP, DU-145, NCI-N87 cells were cultured at 37° C. under 5% CO2 for 96 hours, and MDA-MB-468 cells were cultured at 37° C. in air for 96 hours. Subsequently, the cells were observed under microscope and drug precipitation and particular findings were investigated and recorded. And then, the 96-well plate was placed at room temperature for 30 minutes, added with 20 pt/well of CellTiter-Glo solution (Cat No. G7573, Promega) and shaken for 10 minutes, followed by being subjected to the measurement using PHERAstar™ microplate reader (BMG LABTECH) according to the supplier's general luminometer protocol. Wells where only culture liquid added without cell plating were used as a negative control, whereas wells where culture liquid containing 0.1% DMSO instead of the compounds listed in Examples were used as a positive control.
# [2] = tested on: STAT1; assay: STAT1 reporter gene assay (luciferase), U2OS stable cell line pGL4-STAT1-TA-luc, IFN-γ stimulation; type: cell-based, human; settings: Homo sapiens, IFN-γ 50 ng/mL, 8 hours, read-out: IC50 (μM) pSTAT1
# Summary of the method: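 U2OS cells stably carrying a STAT1-driven luciferase reporter were treated with serially diluted compounds plus IFN-γ (50 ng/mL final) for 8 h at 37 °C in 10% FBS medium. Luciferase read after lysis; parallel plate assessed for cytotoxicity by CellTiter-Glo.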
# [3] = tested on: STAT3; assay: STAT3 reporter gene assay (luciferase), LNCaP stable cell line pSTAT3-TA-luc, IL-6 stimulation; type: cell-based, human; settings: Homo sapiens
# Summary of the method: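 LNCaP cells stably carrying pSTAT3-TA-luc were plated 24 h in 3% DCC-FBS medium, then given compound followed by IL-6 (10 ng/mL final) for 24 h at 37 °C. Luciferase was read from lysates, with CellTiter-Glo viability on a duplicate plate. Stimulated 0.1% DMSO wells served as uninhibited control.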
# [4] = tested on: DU-145 prostate cancer cell line; assay: Cell growth inhibition assay, DU-145 (CellTiter-Glo); type: cell-based; settings: Homo sapiens; DU-145, 3,000 cells/well, 96 hours
# Method: as §1
IC50 [1] [µM],IC50 [2] [µM],IC50 [3] [µM],IC50 [4] [µM],Compound
0.11,> 50,0.054,0.07,"COc1cc(NC(=O)c2cc3cc(C(C)(C)S(C)(=O)=O)ccc3s2)cc(Oc2ccc(Cl)cc2)c1 [Example 46, N-(3-(4-chlorophenoxy)-5-methoxyphenyl)-5-(2-(methylsulfonyl)propan-2-yl)benzo[b]thiophene-2-carboxamide]"
0.02,> 50,0.022,0.016,"CC(C)(c1ccc2sc(C(=O)Nc3cc(Cl)cc(Oc4cc(F)cc(Cl)c4)c3)cc2c1)S(C)(=O)=O [Example 47, N-(3-chloro-5-(3-chloro-5-fluorophenoxy)phenyl)-5-(2-(methylsulfonyl)propan-2-yl)benzo[b]thiophene-2-carboxamide]"
0.01,> 50,0.014,0.008,"CC(C)(c1ccc2sc(C(=O)Nc3cc(Cl)cc(Oc4cccc(OC(F)(F)F)c4)c3)cc2c1)S(C)(=O)=O [Example 48, N-(3-chloro-5-(3-(trifluoromethoxy)phenoxy)phenyl)-5-(2-(methylsulfonyl)propan-2-yl)benzo[b]thiophene-2-carboxamide]"
0.019,> 50,0.019,0.013,"CC(C)(c1ccc2sc(C(=O)Nc3cc(Cl)cc(Oc4ccc(Cl)cc4)c3)cc2c1)S(C)(=O)=O [Example 49, N-(3-chloro-5-(4-chlorophenoxy)phenyl)-5-(2-(methylsulfonyl)propan-2-yl)benzo[b]thiophene-2-carboxamide]"
0.031,> 50,0.022,0.0082,"CC(C)(c1ccc2sc(C(=O)Nc3cc(Cl)cc(Oc4ccc(F)c(Cl)c4)c3)cc2c1)S(C)(=O)=O [Example 51, N-(3-chloro-5-(3-chloro-4-fluorophenoxy)phenyl)-5-(2-(methylsulfonyl)propan-2-yl)benzo[b]thiophene-2-carboxamide]"
0.022,> 50,0.025,0.015,"CC(C)(c1ccc2sc(C(=O)Nc3cc(Cl)cc(Oc4ccc(F)c(F)c4)c3)cc2c1)S(C)(=O)=O [Example 52, N-(3-chloro-5-(3,4-difluorophenoxy)phenyl)-5-(2-(methylsulfonyl)propan-2-yl)benzo[b]thiophene-2-carboxamide]"
0.037,> 50,0.033,0.02,"COc1cc(F)cc(Oc2cc(Cl)cc(NC(=O)c3cc4cc(C(C)(C)S(C)(=O)=O)ccc4s3)c2)c1 [Example 53, N-(3-chloro-5-(3-fluoro-5-methoxyphenoxy)phenyl)-5-(2-(methylsulfonyl)propan-2-yl)benzo[b]thiophene-2-carboxamide]"
0.029,> 50,0.014,0.0059,"CC(C)(c1ccc2sc(C(=O)Nc3cc(Cl)cc(Oc4ccc(Cl)c(F)c4)c3)cc2c1)S(C)(=O)=O [Example 54, N-(3-chloro-5-(4-chloro-3-fluorophenoxy)phenyl)-5-(2-(methylsulfonyl)propan-2-yl)benzo[b]thiophene-2-carboxamide]"
> 1.1,> 50,3.3,> 1.1,"CS(=O)(=O)C1(c2ccc3sc(C(=O)Nc4cc(Cl)cc(Oc5ccc(Cl)cc5)c4)cc3c2)CCOCC1 [Example 56, N-(3-chloro-5-(4-chlorophenoxy)phenyl)-5-(4-(methylsulfonyl)tetrahydro-2H-pyran-4-yl)benzo[b]thiophene-2-carboxamide]"
0.24,> 50,0.86,0.11,"CC(C)(c1ccc2cc(C(=O)Nc3cc(Cl)cc(Oc4ccc(Cl)cc4)c3)sc2c1)S(C)(=O)=O [Example 58, N-(3-chloro-5-(4-chlorophenoxy)phenyl)-6-(2-(methylsulfonyl)propan-2-yl)benzo[b]thiophene-2-carboxamide]"
0.046,> 50,0.034,0.032,"CC(C)(c1ccc2sc(C(=O)Nc3cc(Oc4ccc(Cl)cc4)cc(Cl)n3)cc2c1)S(C)(=O)=O [Example 63, N-(6-chloro-4-(4-chlorophenoxy)pyridin-2-yl)-5-(2-(methylsulfonyl)propan-2-yl)benzo[b]thiophene-2-carboxamide]"
0.26,> 50,0.18,0.17,"CC(C)(c1ccc2sc(C(=O)Nc3cc(Cl)cc(Oc4ccc(Cl)cc4)n3)cc2c1)S(C)(=O)=O [Example 66, N-(4-chloro-6-(4-chlorophenoxy)pyridin-2-yl)-5-(2-(methylsulfonyl)propan-2-yl)benzo[b]thiophene-2-carboxamide]"

# The remaining lines, values behind:
Compound,IC50 [1] [µM],IC50 [2] [µM],IC50 [3] [µM],IC50 [4] [µM]
"CC(C)(c1ccc(Cl)cc1)c1cc(Cl)cc(NC(=O)c2cc3cc(C4(S(C)(=O)=O)CC4)ccc3s2)c1 [Example 33, N-(3-chloro-5-(2-(4-chlorophenyl)propan-2-yl)phenyl)-5-(1-(methylsulfonyl)cyclopropyl)benzo[b]thiophene-2-carboxamide]",0.03,> 50,0.054,0.023
"CC(C)(c1ccc(Cl)cc1)c1cc(Cl)cc(NC(=O)c2cc3cc(C4(S(C)(=O)=O)CCOCC4)ccc3s2)c1 [Example 34, N-(3-chloro-5-(2-(4-chlorophenyl)propan-2-yl)phenyl)-5-(4-(methylsulfonyl)tetrahydro-2H-pyran-4-yl)benzo[b]thiophene-2-carboxamide]",> 1.1,> 50,8.7,> 1.1
"CC(C)(c1ccc2sc(C(=O)Nc3cc(Cl)cc(Oc4ccc(OC(F)(F)F)cc4)c3)cc2c1)S(C)(=O)=O [Example 37, N-(3-chloro-5-(4-(trifluoromethoxy)phenoxy)phenyl)-5-(2-(methylsulfonyl)propan-2-yl)benzo[b]thiophene-2-carboxamide]",0.01,> 50,0.015,0.0071
"CC(C)(c1ccc2sc(C(=O)Nc3cc(Cl)cc(Oc4ccc(C(F)(F)F)cc4)c3)cc2c1)S(C)(=O)=O [Example 38, N-(3-chloro-5-(4-(trifluoromethyl)phenoxy)phenyl)-5-(2-(methylsulfonyl)propan-2-yl)benzo[b]thiophene-2-carboxamide]",0.0083,> 50,0.018,0.0053
"CS(=O)(=O)Cc1ccc2sc(C(=O)Nc3cc(Cl)cc(Oc4ccc(Cl)cc4)c3)cc2c1 [Example 41, N-(3-chloro-5-(4-chlorophenoxy)phenyl)-5-((methylsulfonyl)methyl)benzo[b]thiophene-2-carboxamide]",0.12,> 50,0.16,0.063
"O=C(Nc1cc(Cl)cc(Oc2ccc(Cl)cc2)c1)c1cc2cc(CS(=O)(=O)C(F)(F)F)ccc2s1 [Example 42, N-(3-chloro-5-(4-chlorophenoxy)phenyl)-5-(((trifluoromethyl)sulfonyl)methyl)benzo[b]thiophene-2-carboxamide]",> 1.1,> 50,1.25,> 1.1
"CC(C)(c1ccc2sc(C(=O)Nc3cc(Cl)cc(Oc4ccc(F)cc4)c3)cc2c1)S(C)(=O)=O [Example 43, N-(3-chloro-5-(4-fluorophenoxy)phenyl)-5-(2-(methylsulfonyl)propan-2-yl)benzo[b]thiophene-2-carboxamide]",0.032,> 50,0.023,0.011
"CC(C)(c1cc2cc(C(=O)Nc3cc(Cl)cc(Oc4ccc(Cl)cc4)c3)sc2cc1F)S(C)(=O)=O [Example 44, N-(3-chloro-5-(4-chlorophenoxy)phenyl)-6-fluoro-5-(2-(methylsulfonyl)propan-2-yl)benzo[b]thiophene-2-carboxamide]",0.039,> 50,0.019,0.019
"CC(C)(c1cc2cc(C(=O)Nc3cc(Cl)cc(Oc4ccc(Cl)cc4)c3)sc2cc1Cl)S(C)(=O)=O [Example 45, 6-chloro-N-(3-chloro-5-(4-chlorophenoxy)phenyl)-5-(2-(methylsulfonyl)propan-2-yl)benzo[b]thiophene-2-carboxamide]",0.53,> 50,0.078,0.037
